Source: patent publication US20030040534A1, “Enantiomers of N-[[2'-[[(4,5-dimethyl-3-isoxazolyl)amino]sulfonyl]-4-(2-oxazolyl)[1,1'-biphenyl]-2-yl]methyl]-N,3,3-trimethylbutanamide” (priority 2001, published 2003)
Where two headings read alike, the source gives them in different places.

Columns and labels:
[1] = target: T1, human endothelin A receptor (Homo sapiens, UniProt P25101); experiment: In vitro ETA binding, attached cell assay, [125I]-ET-1 competition
T1 construct: expressed in transfected cells; host or cells: CHO-K1 (G-418 selected)
T1 sequence (P25101 21-427): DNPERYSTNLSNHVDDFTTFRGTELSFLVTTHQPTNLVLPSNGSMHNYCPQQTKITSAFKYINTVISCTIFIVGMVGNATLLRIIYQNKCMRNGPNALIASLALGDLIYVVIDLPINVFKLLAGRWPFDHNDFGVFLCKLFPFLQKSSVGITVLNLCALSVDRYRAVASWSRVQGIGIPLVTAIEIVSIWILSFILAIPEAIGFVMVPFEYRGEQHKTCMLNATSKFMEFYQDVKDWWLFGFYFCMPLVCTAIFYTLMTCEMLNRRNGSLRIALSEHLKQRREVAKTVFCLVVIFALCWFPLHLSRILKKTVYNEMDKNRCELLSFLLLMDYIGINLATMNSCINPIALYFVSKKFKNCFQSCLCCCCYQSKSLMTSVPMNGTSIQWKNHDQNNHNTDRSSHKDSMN
Method: The isolated atropisomers of Example 2 were tested for in vitro ETA binding according to the following procedure:
CHO-K1 cells expressing the human endothelin A receptor were cultured in Ham's F12 media (Gibco/BRL, Grand Island, N.Y.) with 10% fetal bovine serum (Hyclone), supplemented with 300 μg/mL Geneticin (G-418 Gibco BRL Products, Grand Island, N.Y.) and maintained at 37° C. with 5% CO2 in a humidified incubator. Forty eight hours prior to assay, the cells were treated with 0.25% trypsin-EDTA and were seeded in Falcon, 96 well tissue culture plates at a density of 1.5×10^4 cells/well (the monolayer should reach 80-90% confluency by the day of assay).
In the attached cell assay, culture media was aspirated from each well and the monolayers were washed with 75 μl of room temperature PBS (Mg^++, Ca^++ free). After the addition of 75 μl of cold binding buffer to each well, the plate was chilled at 4° C. for 3 minutes before the addition of competing drugs and isotope. The binding assay was performed in a total volume of 125 μl consisting of assay buffer, maintained at 4° C. (50 mM Tris, pH 7.4, including 1% BSA, and 2 μM phosphoramidon), and 25 μl of either 500 nM ET-1 (to define nonspecific binding) or competing drugs. The reaction was initiated with the addition of 25 μl of 0.25 nM [^125I]-ET-1 (New England Nuclear). Incubation was carried out with gentle orbital shaking, at 4° C., reaching equilibrium at 4 hours. The reaction was terminated by aspiration of the reaction buffer and two subsequent washes with room temperature PBS (Mg^++, Ca^++ free). The cells were dissociated by the addition of 100 μl of 0.5N NaOH followed by incubation for 40 minutes. Samples were then transferred from the 96 well format into tubes for counting in a Cobra gamma counter (Packard). Data was analyzed with curve fitting software by Sigma plot.
In each assay run that was performed, one sample of each atropisomer as well as one sample of racemate was tested for activity.

[2] = In vitro interconversion (racemization) of enantiomeric atropisomers under pseudo-physiological conditions, chiral HPLC
Method: The in vitro interconversion of N-[[2′-[[(4,5-dimethyl-3-isoxazolyl)amino]sulfonyl]-4-(2-oxazolyl)[1,1′-biphenyl]-2-yl]methyl]-N,3,3-trimethylbutanamide enantiomeric atropisomers was investigated using normal phase chiral HPLC with ultraviolet and laser polarimetric detection, under pseudo-physiological conditions, i.e., aqueous medium at 37° C., gastric fluid at 37° C. and human serum at 37° C.

[3] = Table 1, 97% pure atropisomers of Example 2, Run 1, CHO-K1 cells expressing human ETA, 4° C., read-out: IC50 (nM) Run 1
[4] = Table 1, 97% pure atropisomers of Example 2, Run 2, read-out: IC50 (nM) Run 2
[5] = Table 1, 97% pure atropisomers of Example 2, Run 3, read-out: IC50 (nM) Run 3
[6] = Table 1, 97% pure atropisomers of Example 2, Run 4, read-out: IC50 (nM) Run 4
[7] = Table 2, 99.2% pure atropisomers of Example 2, Run 1, read-out: IC50 (nM) Run 1
[8] = Table 2, 99.2% pure atropisomers of Example 2, Run 2, read-out: IC50 (nM) Run 2
[9] = Table 2, 99.2% pure atropisomers of Example 2, Run 3, read-out: IC50 (nM) Run 3
[10] = Table 2, 99.2% pure atropisomers of Example 2, Run 4, read-out: IC50 (nM) Run 4
[11] = Table 2, 99.2% pure atropisomers of Example 2, Run 5, read-out: IC50 (nM) Run 5
[12] = Table 2, 99.2% pure atropisomers of Example 2, Run 6, read-out: IC50 (nM) Run 6
[13] = Table 2, 99.2% pure atropisomers of Example 2, Run 7, read-out: IC50 (nM) Run 7
[14] = Table 2, 99.2% pure atropisomers of Example 2, Run 8, read-out: IC50 (nM) Run 8
[15] = Table 2, 99.2% pure atropisomers of Example 2, Run 9, read-out: IC50 (nM) Run 9

**Q.** With `Cc1onc(NS(=O)(=O)c2ccccc2-c2ccc(-c3ncco3)cc2CN(C)C(=O)CC(C)(C)C)c1C` (single isomer, unassigned) [97% pure (+) dextrorotatory, N-[[2′-[[(4,5-dimethyl-3-isoxazolyl)amino]sulfonyl]-4-(2-oxazolyl)[1,1′-biphenyl]-2-yl]methyl]-N,3,3-trimethylbutanamide] as the molecule, how does the IC50 [1, 3] read?
**A.** 0.03 nM

**Q.** What about the IC50 [1, 4] of the same molecule?
**A.** 0.01 nM

**Q.** And the IC50 [1, 5]?
**A.** 0.01 nM

**Q.** What about the IC50 [1, 6] of the same molecule?
**A.** 0.01 nM

**Q.** What about the IC50 [1, 7] of the same molecule?
**A.** 0.002 nM

**Q.** And the IC50 [1, 8]?
**A.** 0.002 nM

**Q.** What about the IC50 [1, 9] of the same molecule?
**A.** 0.7 nM

**Q.** What about the IC50 [1, 10] of the same molecule?
**A.** 0.1 nM

**Q.** And the IC50 [1, 11]?
**A.** 0.3 nM

**Q.** And the IC50 [1, 12]?
**A.** 0.38 nM

**Q.** And the IC50 [1, 13]?
**A.** 0.34 nM

**Q.** And the IC50 [1, 14]?
**A.** 0.38 nM

**Q.** What about the IC50 [1, 15] of the same molecule?
**A.** 0.41 nM

**Q.** And the “potency compared with the (−) levorotatory atropisomer or the racemate” value ([1]; endothelin antagonist, statement in words)?
**A.** remarkably higher potency

**Q.** What does the source list for `Cc1onc(NS(=O)(=O)c2ccccc2-c2ccc(-c3ncco3)cc2CN(C)C(=O)CC(C)(C)C)c1C` (racemic) [Racemate, N-[[2′-[[(4,5-dimethyl-3-isoxazolyl)amino]sulfonyl]-4-(2-oxazolyl)[1,1′-biphenyl]-2-yl]methyl]-N,3,3-trimethylbutanamide]?
**A.** IC50 ([1]; IC50 (nM) Run 1, Table 1, 97% pure atropisomers of Example 2, Run 1, CHO-K1 cells expressing human ETA, 4° C.): 0.12 nM; IC50 ([1]; IC50 (nM) Run 1, Table 2, 99.2% pure atropisomers of Example 2, Run 1): 0.018 nM; IC50 ([1]; IC50 (nM) Run 2, Table 1, 97% pure atropisomers of Example 2, Run 2): 0.24 nM; IC50 ([1]; IC50 (nM) Run 2, Table 2, 99.2% pure atropisomers of Example 2, Run 2): 0.08 nM; IC50 ([1]; IC50 (nM) Run 3, Table 1, 97% pure atropisomers of Example 2, Run 3): 0.21 nM; IC50 ([1]; IC50 (nM) Run 3, Table 2, 99.2% pure atropisomers of Example 2, Run 3): 0.4 nM; IC50 ([1]; IC50 (nM) Run 4, Table 1, 97% pure atropisomers of Example 2, Run 4): 0.1 nM; IC50 ([1]; IC50 (nM) Run 4, Table 2, 99.2% pure atropisomers of Example 2, Run 4): 0.3 nM; IC50 ([1]; IC50 (nM) Run 5, Table 2, 99.2% pure atropisomers of Example 2, Run 5): 0.2 nM; IC50 ([1]; IC50 (nM) Run 6, Table 2, 99.2% pure atropisomers of Example 2, Run 6): 0.4 nM; IC50 ([1]; IC50 (nM) Run 7, Table 2, 99.2% pure atropisomers of Example 2, Run 7): 0.24 nM; IC50 ([1]; IC50 (nM) Run 8, Table 2, 99.2% pure atropisomers of Example 2, Run 8): 0.16 nM; IC50 ([1]; IC50 (nM) Run 9, Table 2, 99.2% pure atropisomers of Example 2, Run 9): 0.27 nM; half-life [2]: 15.8 h; half-life ([2]; buffer): ~15 h

**Q.** What does the source list for `Cc1onc(NS(=O)(=O)c2ccccc2-c2ccc(-c3ncco3)cc2CN(C)C(=O)CC(C)(C)C)c1C` (single isomer, unassigned) [97% pure (−) levorotatory, N-[[2′-[[(4,5-dimethyl-3-isoxazolyl)amino]sulfonyl]-4-(2-oxazolyl)[1,1′-biphenyl]-2-yl]methyl]-N,3,3-trimethylbutanamide]?
**A.** IC50 [1, 3]: 0.41 nM; IC50 [1, 4]: 0.9 nM; IC50 [1, 5]: 0.6 nM; IC50 [1, 6]: 1.4 nM; IC50 [1, 7]: 0.1 nM; IC50 [1, 8]: 0.65 nM; IC50 [1, 9]: 6 nM; IC50 [1, 10]: 5 nM; IC50 [1, 11]: 7 nM; IC50 [1, 12]: 3.7 nM; IC50 [1, 13]: 21 nM; IC50 [1, 14]: 14 nM; IC50 [1, 15]: 19 nM
